Results reported in US20230061736A1, “GPR119 AGONISTS” (Kallyope, Inc., priority 2019, published 2023).

Biological target: T1, human GPR119 (hGPR119) (Homo sapiens, UniProt Q8TDV5)
T1 construct: expressed in transfected cells
T1 sequence (Q8TDV5 1-335): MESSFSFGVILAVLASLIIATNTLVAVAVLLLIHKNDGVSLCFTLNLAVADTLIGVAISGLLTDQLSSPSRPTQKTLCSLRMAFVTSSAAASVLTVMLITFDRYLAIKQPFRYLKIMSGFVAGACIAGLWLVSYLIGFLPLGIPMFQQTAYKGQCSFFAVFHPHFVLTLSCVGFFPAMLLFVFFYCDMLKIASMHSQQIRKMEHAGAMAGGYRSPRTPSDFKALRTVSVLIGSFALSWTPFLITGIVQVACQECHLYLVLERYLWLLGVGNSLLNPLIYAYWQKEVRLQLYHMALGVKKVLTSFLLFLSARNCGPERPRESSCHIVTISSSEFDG
Test: cAMP accumulation assay (cAMP Gs dynamic HTRF kit)
Type: cell-based
Conditions: CHO-K1 cells stably expressing hGPR119, 4-parameter fit; for Emax: 1 h, % activity normalized to Max/Min controls; for EC50: cAMP accumulation
In short: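 Read-out is HTRF 665/620 nm ratio after 1 h detection at ambient temperature, converted to % activity against positive and negative controls, EC50 and Max activity by 4-parameter fit. Compounds were titrated onto ~10,000 thawed hGPR119-CHO-K1 cells/well for 60 min at 37° C/5% CO2.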

SMILES | Emax [%] | EC50 [nM]
O=C(Cc1ccc(OCCCC2CCN(c3ncc(Cl)cn3)CC2)cc1F)N1CC[C@H](CNC[C@H](O)[C@@H](O)[C@H](O)[C@H](O)CO)C1 [Example 100, 2-[4-[3-[1-(5-chloropyrimidin-2-yl)-4-piperidyl]propoxy]-2-fluoro-phenyl]-1-[(3R)-3-[[[(2S,3R,4R,5R)-2,3,4,5,6-pentahydroxyhexyl]amino]methyl]pyrrolidin-1-yl]ethanone] | 100 to 130 | ≤ 100
O=C(Cc1ccc(OCCCC2CCN(c3ncc(Cl)cn3)CC2)cc1F)N1CC[C@H](CNCC(O)(CO)CO)C1 [Example 101, 2-[4-[3-[1-(5-chloropyrimidin-2-yl)-4-piperidyl]propoxy]-2-fluoro-phenyl]-1-[(3R)-3-[[[2,3-dihydroxy-2-(hydroxymethyl)propyl]amino]methyl]pyrrolidin-1-yl]ethanone] | 100 to 130 | ≤ 100
O=C(NC(CO)(CO)CO)[C@@H]1CCN(C(=O)Cc2ccc(OCCCC3CCN(c4ncc(Cl)cn4)CC3)cc2F)C1 [Example 102, (3R)-1-[2-[4-[3-[1-(5-chloropyrimidin-2-yl)-4-piperidyl]propoxy]-2-fluoro-phenyl]acetyl]-N-[2-hydroxy-1,1-bis(hydroxymethyl)ethyl]pyrrolidine-3-carboxamide] | 100 to 130 | ≤ 100
O=C(NC(CO)(CO)CO)[C@H]1CCN(C(=O)Cc2ccc(OCCCC3CCN(c4ncc(Cl)cn4)CC3)cc2F)C1 [Example 103, (3S)-1-[2-[4-[3-[1-(5-chloropyrimidin-2-yl)-4-piperidyl]propoxy]-2-fluoro-phenyl]acetyl]-N-[2-hydroxy-1,1-bis(hydroxymethyl)ethyl]pyrrolidine-3-carboxamide] | 100 to 130 | ≤ 100
O=C(Cc1ccc(OCCC2CC3(CCN(c4ncc(Cl)cn4)CC3)C2)cc1F)N1CC(CNC[C@H](O)[C@@H](O)[C@H](O)[C@H](O)CO)C1 [Example 104, 2-[4-[2-[7-(5-chloropyrimidin-2-yl)-7-azaspiro[3.5]nonan-2-yl]ethoxy]-2-fluoro-phenyl]-1-[3-[[[(2S,3R,4R,5R)-2,3,4,5,6-pentahydroxyhexyl]amino]methyl]azetidin-1-yl]ethanone] | 100 to 130 | 100 to 1000
O=C(Cc1ccc(OCCCC2CC3(CCN(c4ncc(Cl)cn4)CC3)C2)cc1F)N1CC(CNC[C@H](O)[C@@H](O)[C@H](O)[C@H](O)CO)C1 [Example 105, 2-[4-[3-[7-(5-chloropyrimidin-2-yl)-7-azaspiro[3.5]nonan-2-yl]propoxy]-2-fluoro-phenyl]-1-[3-[[[(2S,3R,4R,5R)-2,3,4,5,6-pentahydroxyhexyl]amino]methyl]azetidin-1-yl]ethanone] | 100 to 130 | ≤ 100
O=C(Cc1ccc(OCCCCC2CC3(CCN(c4ncc(Cl)cn4)CC3)C2)cc1F)N1CC(CNC[C@H](O)[C@@H](O)[C@H](O)[C@H](O)CO)C1 [Example 106, 2-[4-[4-[7-(5-chloropyrimidin-2-yl)-7-azaspiro[3.5]nonan-2-yl]butoxy]-2-fluoro-phenyl]-1-[3-[[[(2S,3R,4R,5R)-2,3,4,5,6-pentahydroxyhexyl]amino]methyl]azetidin-1-yl]ethanone] | 100 to 130 | 100 to 1000
O=C(Cc1ccc(COCC2CC3(CCN(c4ncc(Cl)cn4)CC3)C2)cc1F)N1CC(CNC[C@H](O)[C@@H](O)[C@H](O)[C@H](O)CO)C1 [Example 107] | 100 to 130 | 1000 to 10000
CCOc1cnc(N2CCC(CCCOc3ccc(CC(=O)N4CC(CC(=O)NCC(O)(CO)CO)C4)c(F)c3)CC2)nc1 [Example 108, N-[2,3-dihydroxy-2-(hydroxymethyl)propyl]-2-[1-[2-[4-[3-[1-(5-ethoxypyrimidin-2-yl)-4-piperidyl]propoxy]-2-fluoro-phenyl]acetyl]azetidin-3-yl]acetamide] | 100 to 130 | ≤ 100
CC1(CCCCOc2ccc(CC(=O)N3CC(CNC[C@H](O)[C@@H](O)[C@H](O)[C@H](O)CO)C3)c(F)c2)CCN(c2ncc(Cl)cn2)CC1 [Example 109, 2-[4-[4-[1-(5-chloropyrimidin-2-yl)-4-methyl-4-piperidyl]butoxy]-2-fluoro-phenyl]-1-[3-[[[(2S,3R,4R,5R)-2,3,4,5,6-pentahydroxyhexyl]amino]methyl]azetidin-1-yl]ethanone] | 100 to 130 | 100 to 1000
O=C(Cc1ccc(OCCC2CC23CCN(c2ncc(Cl)cn2)CC3)cc1F)N1CC(CNC[C@H](O)[C@@H](O)[C@H](O)[C@H](O)CO)C1 (stereo partly drawn) [Example 110, 2-[4-[2-[6-(5-chloropyrimidin-2-yl)-6-azaspiro[2.5]octan-2-yl]ethoxy]-2-fluoro-phenyl]-1-[3-[[[(2S,3R,4R,5R)-2,3,4,5,6-pentahydroxyhexyl]amino]methyl]azetidin-1-yl]ethanone] | 100 to 130 | 100 to 1000
O=C(Cc1ccc(COCC2CC23CCN(c2ncc(Cl)cn2)CC3)cc1F)N1CC(CNC[C@H](O)[C@@H](O)[C@H](O)[C@H](O)CO)C1 (stereo partly drawn) [Example 111, 2-[4-[[6-(5-chloropyrimidin-2-yl)-6-azaspiro[2.5]octan-2-yl]methoxymethyl]-2-fluoro-phenyl]-1-[3-[[[(2S,3R,4R,5R)-2,3,4,5,6-pentahydroxyhexyl]amino]methyl]azetidin-1-yl]ethanone] | 50 to 100 | 1000 to 10000
CC(C)OC(=O)N1CCC(CCCOc2ccc(CC(=O)N3CC(CNC[C@H](O)[C@@H](O)[C@H](O)[C@H](O)CO)C3)c(F)c2)CC1 [Example 112, isopropyl 4-[3-[3-fluoro-4-[2-oxo-2-[3-[[[(2S,3R,4R,5R)-2,3,4,5,6-pentahydroxyhexyl]amino]methyl]azetidin-1-yl]ethyl]phenoxy]propyl] piperidine-1-carboxylate] | 100 to 130 | 100 to 1000
O=C(Cc1ccc(OCCC[C@@H]2[C@H]3CN(c4ncc(Cl)cn4)C[C@@H]23)cc1F)N1CC(CNC[C@H](O)[C@@H](O)[C@H](O)[C@H](O)CO)C1 [Example 113, 2-[4-[3-[(1R,5S)-3-(5-chloropyrimidin-2-yl)-3-azabicyclo[3.1.0]hexan-6-yl]propoxy]-2-fluoro-phenyl]-1-[3-[[[(2S,3R,4R,5R)-2,3,4,5,6-pentahydroxyhexyl]amino]methyl]azetidin-1-yl]ethanone] | 100 to 130 | 100 to 1000
CCOc1cnc(N2CCC(CCCOc3cc(F)c(CC(=O)N4CC(CNC[C@H](O)[C@@H](O)[C@H](O)[C@H](O)CO)C4)c(F)c3)CC2)nc1 [Example 114, 2-[4-[3-[1-(5-ethoxypyrimidin-2-yl)-4-piperidyl]propoxy]-2,6-difluoro-phenyl]-1-[3-[[[(2S,3R,4R,5R)-2,3,4,5,6-pentahydroxyhexyl]amino]methyl]azetidin-1-yl]ethanone] | 100 to 130 | ≤ 100
O=C(Cc1c(F)cc(OCCC2CC3(CCN(c4ncc(Cl)cn4)CC3)C2)cc1F)N1CC(CNC[C@H](O)[C@@H](O)[C@H](O)[C@H](O)CO)C1 [Example 115, 2-[4-[2-[7-(5-chloropyrimidin-2-yl)-7-azaspiro[3.5]nonan-2-yl]ethoxy]-2,6-difluoro-phenyl]-1-[3-[[[(2S,3R,4R,5R)-2,3,4,5,6-pentahydroxyhexyl]amino]methyl]azetidin-1-yl]ethanone] | 100 to 130 | 100 to 1000
O=C(Cc1c(F)cc(OCCCC2CC3(CCN(c4ncc(Cl)cn4)CC3)C2)cc1F)N1CC(CNC[C@H](O)[C@@H](O)[C@H](O)[C@H](O)CO)C1 [Example 116, 2-[4-[3-[7-(5-chloropyrimidin-2-yl)-7-azaspiro[3.5]nonan-2-yl]propoxy]-2,6-difluoro-phenyl]-1-[3-[[[(2S,3R,4R,5R)-2,3,4,5,6-pentahydroxyhexyl]amino]methyl]azetidin-1-yl]ethanone] | ≥ 130 | ≤ 100
CC(C)OC(=O)N1CCC2(CC1)CC(CCCOc1ccc(CC(=O)N3CC(CNC[C@H](O)[C@@H](O)[C@H](O)[C@H](O)CO)C3)c(F)c1)C2 [Example 117, isopropyl 2-[3-[3-fluoro-4-[2-oxo-2-[3-[[[(2S,3R,4R,5R)-2,3,4,5,6-pentahydroxyhexyl]amino]methyl]azetidin-1-yl]ethyl]phenoxy]propyl]-7-azaspiro[3.5]nonane-7-carboxylate] | 100 to 130 | 100 to 1000
CC(C)OC(=O)N1CCC2(CC1)CC(CCOc1ccc(CC(=O)N3CC(CNC[C@H](O)[C@@H](O)[C@H](O)[C@H](O)CO)C3)c(F)c1)C2 [Example 118, isopropyl 2-[2-[3-fluoro-4-[2-oxo-2-[3-[[[(2S,3R,4R,5R)-2,3,4,5,6-pentahydroxyhexyl]amino]methyl]azetidin-1-yl]ethyl]phenoxy]ethyl]-7-azaspiro[3.5]nonane-7-carboxylate] | 100 to 130 | 100 to 1000
O=C(Cc1ccc(OCC2CC(C3CCN(c4ncc(Cl)cn4)CC3)C2)cc1F)N1CC(CNC[C@H](O)[C@@H](O)[C@H](O)[C@H](O)CO)C1 (stereo partly drawn) [Example 120, 2-[4-[ [3-[1-(5-chloropyrimidin-2-yl)-4-piperidyl]cyclobutyl]methoxy]-2-fluoro-phenyl]-1-[3-[[[(2S,3R,4R,5R)-2,3,4,5,6-pentahydroxyhexyl]amino]methyl]azetidin-1-yl]ethanone] | 100 to 130 | ≤ 100
